Test results as given in patent publication US20210161135A1, “WEED CONTROL FROM APPLICATIONS OF PYRIDINE CARBOXYLIC ACID HERBICIDES AND 4-HYDROXYPHENYL-PYRUVATE DIOXYGENASE (HPPD) INHIBITORS” (Dow AgroSciences LLC, priority 2018, published 2021).

Tests used:
Assay in all cases: Postemergence herbicidal activity, greenhouse, visual injury after 20-22 d
Assay type in all cases: in vivo
[1] = system: velvetleaf (Abutilon theophrasti, ABUTH)
Method: (§1) Seeds of the desired test plant species were planted in Sun Gro MetroMix® 306 planting mixture, which typically has a pH of 6.0 to 6.8 and an organic matter content of about 30 percent, in plastic pots with a surface area of 103.2 square centimeters (cm^2). When required to ensure good germination and healthy plants, a fungicide treatment and/or other chemical or physical treatment was applied. The plants were grown for 7-36 days (d) in a greenhouse with an approximate 14-hour (h) photoperiod which was maintained at about 23° C. during the day and 22° C. during the night. Nutrients and water were added on a regular basis and supplemental lighting was provided with overhead metal halide 1000-Watt lamps as necessary. The plants were employed for testing when they reached the second or third true leaf stage.
(§2) An emulsifiable concentrate (EC) formulation containing Compound 1 at 100 gai/L was prepared by combining Compound 1 with 1-butyl-2-pyrrolidinone (Tamisolve NxG; 360.5 g/L), benzyl acetate (544.6 g/L) and Agnique MBL 520L surfactant (52.9 g/L). […] The concentrated stock solutions were diluted with an aqueous mixture of 1.5% v/v of Agri-dex crop oil concentrate to provide the appropriate application rates. Compound requirements are based upon a 12 milliliter (mL) application volume at a rate of 187 liters per hectare (L/ha). Spray solutions of the experimental compound mixtures were prepared by adding the stock solutions to the appropriate amount of dilution solution to form a 12 mL spray solution in two-way combinations. Formulated compounds were applied to the plant material with an overhead Mandel track sprayer equipped with 8002E nozzles calibrated to deliver 187 L/ha over an application area of 0.503 square meters (m^2) at a spray height of […] above average plant canopy. Control plants were sprayed in the same manner with the solvent blank. Application rates for component (a) are in g ai/ha, and application rates for component (b) are in g ai/ha.
(§3) The treated plants and control plants were placed in a greenhouse as described above and watered by sub-irrigation to prevent wash-off of the test compounds. After 20-22 d, the condition of the test plants as compared with that of the control plants was determined visually and scored on a scale of 0 to 100 percent where 0 corresponds to no injury and 100 corresponds to complete kill. […] The Colby method was used to determine the herbicidal effects expected from the mixtures.

[2] = system: wild pansy (Viola tricolor, VIOTR)
Method: as §1, §2, §3

[3] = system: giant foxtail (Setaria faberi, SETFA)
Method: as §1, §2, §3

[4] = system: common lambsquarters (Chenopodium album L., CHEAL)
Method: as §1, §2, §3

[5] = system: spring rape (Brassica napus, BRSNN)
Method: as §1, §2, §3

[6] = system: wild buckwheat (Polygonum convolvulus, POLCO)
Method: as §1, §2, §3

[7] = system: thistle (Cirsium arvense CIRAR)
Method: as §1, §2, §3

[8] = system: poinsettia (Euphorbia heterophylla, EPHHL)
Method: as §1, §2, §3

[9] = system: kochia (Kochia scoparia, KCHSC)
Method: as §1, §2, §3

[10] = system: grain sorghum (Sorghum vulgare, SORVU); settings: two trials
Method: as §1, §2, §3

[11] = system: wild oat (Avena fatua, AVEFA); settings: two trials
Method: as §1, §2, §3

[12] = system: large crabgrass (Digitaria sanguinalis, DIGSA); settings: two trials
Method: as §1, §2, §3

[13] = system: sunflower (Helianthus annuus, HELAN); settings: two trials
Method: as §1, §2, §3

[14] = system: maize (Zea mays, ZEAMX); settings: two trials
Method: as §1, §2, §3

[15] = system: soybean (Glycine max, GLXMA); settings: two trials
Method: as §1, §2, §3

[16] = system: rice (Oryza sativa, ORYSA); settings: two trials
Method: as §1, §2, §3

[17] = system: winter rape (Brassica napus, BRSNW); settings: two trials
Method: as §1, §2, §3

[18] = system: ivyleaf morningglory (Ipomoea hederacea, IPOHE); settings: two trials
Method: as §1, §2, §3

[19] = system: barnyardgrass (Echinochloa crus-galli, ECHCG); settings: two trials
Method: as §1, §2, §3

[20] = system: winter wheat (Triticum aestivum, TRZAW); settings: two trials
Method: as §1, §2, §3

[21] = system: pigweed (Amaranthus retroflexus, AMARE); settings: two trials
Method: as §1, §2, §3

[22] = system: common chickweed (Stellaria media, STEME); settings: two trials
Method: as §1, §2, §3

[23] = Compound 1 5 g ai/ha alone, Tables 4-5
[24] = Compound 1 5 g ai/ha alone, two trials
[25] = Compound 1 10 g ai/ha alone, Tables 4-5
[26] = Compound 1 10 g ai/ha alone, two trials
[27] = HPPD inhibitor 35 g ai/ha alone
[28] = HPPD inhibitor 35 g ai/ha alone, two trials

In the case of `CS(=O)(=O)c1ccc(C(=O)C2=C(Sc3ccccc3)C3CCC(C3)C2=O)c(Cl)c1` (stereo not drawn) [Benzobicyclon, 3-[2-chloro-4-(methylsulfonyl)benzoyl]-4-(phenylthio)bicyclo[3.2.1]oct-3-en-2-one], the “Effect (% visual injury), Obs” value ([1]; Benzobicyclon 50 g ai/ha alone) is reported as 25%, the “Effect (% visual injury), Obs” value ([2]; Benzobicyclon 50 g ai/ha alone) is reported as 10% and the “Effect (% visual injury), Obs” value ([3]; Benzobicyclon 50 g ai/ha alone) is reported as 0%. For the same compound, the “Effect (% visual injury), Obs” value ([4]; Benzobicyclon 50 g ai/ha alone) was 100%, the “Effect (% visual injury), Obs” value ([5]; Benzobicyclon 50 g ai/ha alone) was 0% and the “Effect (% visual injury), Obs” value ([6]; Benzobicyclon 50 g ai/ha alone) was 0%. For the same compound, the “Effect (% visual injury), Obs” value ([7]; Benzobicyclon 50 g ai/ha alone) was 20%, the “Effect (% visual injury), Obs” value ([8]; Benzobicyclon 50 g ai/ha alone) was 5% and the “Effect (% visual injury), Obs” value ([9]; Benzobicyclon 50 g ai/ha alone) was 10%.

For `Nc1c(F)c(-c2ccc3cc[nH]c3c2F)nc(C(=O)O)c1Cl` [Compound 1], the “Effect (% visual injury), Obs” value ([10]; Compound 1 5 g ai/ha alone) was 0%, the “Effect (% visual injury), Obs” value ([10]; Compound 1 10 g ai/ha alone) was 50% and the “Effect (% visual injury), Obs” value [1, 23] was 50%. For the same compound, the “Effect (% visual injury), Obs” value [1, 24] was 50%, the “Effect (% visual injury), Obs” value [1, 25] was 50% and the “Effect (% visual injury), Obs” value [1, 26] was 55%. For the same compound, the “Effect (% visual injury), Obs” value ([11]; Compound 1 5 g ai/ha alone) was 0%, the “Effect (% visual injury), Obs” value ([11]; Compound 1 10 g ai/ha alone) was 0% and the “Effect (% visual injury), Obs” value [2, 23] was 10%. For the same compound, the “Effect (% visual injury), Obs” value [2, 24] was 8%, the “Effect (% visual injury), Obs” value [2, 25] was 15% and the “Effect (% visual injury), Obs” value [2, 26] was 13%. The “Effect (% visual injury), Obs” value [3, 23] was 50%, the “Effect (% visual injury), Obs” value [3, 24] was 30% and the “Effect (% visual injury), Obs” value [3, 25] was 75%. The “Effect (% visual injury), Obs” value [3, 26] was 63%, the “Effect (% visual injury), Obs” value [4, 23] was 90% and the “Effect (% visual injury), Obs” value [4, 24] was 90%. The “Effect (% visual injury), Obs” value [4, 25] was 95%, the “Effect (% visual injury), Obs” value [4, 26] was 98% and the “Effect (% visual injury), Obs” value ([12]; Compound 1 5 g ai/ha alone) was 0%. The “Effect (% visual injury), Obs” value ([12]; Compound 1 10 g ai/ha alone) was 10%, the “Effect (% visual injury), Obs” value [5, 23] was 50% and the “Effect (% visual injury), Obs” value [5, 24] was 50%. For the same compound, the “Effect (% visual injury), Obs” value [5, 25] was 80%, the “Effect (% visual injury), Obs” value [5, 26] was 80% and the “Effect (% visual injury), Obs” value ([13]; Compound 1 5 g ai/ha alone) was 90%. For the same compound, the “Effect (% visual injury), Obs” value ([13]; Compound 1 10 g ai/ha alone) was 90%, the “Effect (% visual injury), Obs” value ([14]; Compound 1 5 g ai/ha alone) was 0% and the “Effect (% visual injury), Obs” value ([14]; Compound 1 10 g ai/ha alone) was 0%. For the same compound, the “Effect (% visual injury), Obs” value ([15]; Compound 1 5 g ai/ha alone) was 95%, the “Effect (% visual injury), Obs” value ([15]; Compound 1 10 g ai/ha alone) was 100% and the “Effect (% visual injury), Obs” value ([16]; Compound 1 5 g ai/ha alone) was 0%. For the same compound, the “Effect (% visual injury), Obs” value ([16]; Compound 1 10 g ai/ha alone) was 10%, the “Effect (% visual injury), Obs” value ([17]; Compound 1 5 g ai/ha alone) was 40% and the “Effect (% visual injury), Obs” value ([17]; Compound 1 10 g ai/ha alone) was 45%. For the same compound, the “Effect (% visual injury), Obs” value [6, 23] was 40%, the “Effect (% visual injury), Obs” value [6, 24] was 53% and the “Effect (% visual injury), Obs” value [6, 25] was 40%. The “Effect (% visual injury), Obs” value [6, 26] was 58%, the “Effect (% visual injury), Obs” value ([18]; Compound 1 5 g ai/ha alone) was 10% and the “Effect (% visual injury), Obs” value ([18]; Compound 1 10 g ai/ha alone) was 10%. The “Effect (% visual injury), Obs” value [7, 23] was 50%, the “Effect (% visual injury), Obs” value [7, 24] was 50% and the “Effect (% visual injury), Obs” value [7, 25] was 60%. For the same compound, the “Effect (% visual injury), Obs” value [7, 26] was 60%, the “Effect (% visual injury), Obs” value [8, 23] was 75% and the “Effect (% visual injury), Obs” value [8, 24] was 86%. For the same compound, the “Effect (% visual injury), Obs” value [8, 25] was 100%, the “Effect (% visual injury), Obs” value [8, 26] was 99% and the “Effect (% visual injury), Obs” value ([19]; Compound 1 5 g ai/ha alone) was 20%. The “Effect (% visual injury), Obs” value ([19]; Compound 1 10 g ai/ha alone) was 60%, the “Effect (% visual injury), Obs” value ([20]; Compound 1 5 g ai/ha alone) was 0% and the “Effect (% visual injury), Obs” value ([20]; Compound 1 10 g ai/ha alone) was 0%. The “Effect (% visual injury), Obs” value [9, 23] was 65%, the “Effect (% visual injury), Obs” value [9, 24] was 63% and the “Effect (% visual injury), Obs” value [9, 25] was 75%. The “Effect (% visual injury), Obs” value [9, 26] was 68%, the “Effect (% visual injury), Obs” value ([21]; Compound 1 5 g ai/ha alone) was 75% and the “Effect (% visual injury), Obs” value ([21]; Compound 1 10 g ai/ha alone) was 97%. For the same compound, the “Effect (% visual injury), Obs” value ([22]; Compound 1 5 g ai/ha alone) was 70% and the “Effect (% visual injury), Obs” value ([22]; Compound 1 10 g ai/ha alone) was 70%.

For `CS(=O)(=O)c1cc(C(F)(F)F)ccc1C(=O)c1cnoc1C1CC1` [Isoxaflutole, (5-cyclopropyl-4-isoxazolyl)[2-(methylsulfonyl)-4-(trifluoromethyl)phenyl]methanone], the “Effect (% visual injury), Obs” value [10, 27] was 0%, the “Effect (% visual injury), Obs” value [1, 28] was 45% and the “Effect (% visual injury), Obs” value [11, 27] was 60%. The “Effect (% visual injury), Obs” value [2, 28] was 45%, the “Effect (% visual injury), Obs” value [3, 28] was 97% and the “Effect (% visual injury), Obs” value [4, 28] was 99%. For the same compound, the “Effect (% visual injury), Obs” value [12, 27] was 50%, the “Effect (% visual injury), Obs” value [5, 28] was 85% and the “Effect (% visual injury), Obs” value [13, 27] was 90%. The “Effect (% visual injury), Obs” value [14, 27] was 0%, the “Effect (% visual injury), Obs” value [15, 27] was 75% and the “Effect (% visual injury), Obs” value [16, 27] was 30%. The “Effect (% visual injury), Obs” value [17, 27] was 60%, the “Effect (% visual injury), Obs” value [6, 28] was 10% and the “Effect (% visual injury), Obs” value [18, 27] was 70%. For the same compound, the “Effect (% visual injury), Obs” value [7, 28] was 75%, the “Effect (% visual injury), Obs” value [8, 28] was 43% and the “Effect (% visual injury), Obs” value [19, 27] was 25%. The “Effect (% visual injury), Obs” value [20, 27] was 15%, the “Effect (% visual injury), Obs” value [9, 28] was 90% and the “Effect (% visual injury), Obs” value [21, 27] was 95%. For the same compound, the “Effect (% visual injury), Obs” value [22, 27] was 10%.
